Assay results from patent US9943482B2, “Milk-derived microvesicle compositions and related methods” (UNIVERSITY OF LOUISVILLE RESEARCH FOUNDATION, INC., priority 2013, dated 2018).
Where two headings read alike, the source gives them in different places.

Tests used:
[1] = Loading of therapeutic agents into bovine milk-derived exosomes; format: physicochemical
Method: (§1) Several procedures were developed to load therapeutic agents onto the milk- or colostrum-derived exosomes. […] In one preferred embodiment, incubation of exosomes in PBS with test agents in the presence of 10% ethanol or 10% ethanol:acetonitrile (1:1) allowed for increased loading of therapeutic agents into the exosomes. The agents utilized in those studies included curcumin, withaferin A, demethoxycurcumin, delphinidin, cyanidin, a native mixture of (five) anthocyanidins from bilberry, punicalagin, and tanshinone II. The chemotherapeutic agents doxorubicin, paclitaxel, and docetaxel were also loaded in the exosomes. In this regard, it was observed that the exosomes accepted both hydrophobic (paclitaxel, docetaxel, curcumin, withaferin A, tanshinone II) and hydrophilic agents (berry anthocyanidins, punicalagin) with a loading efficiency of 4% to 65% with respect to exosomal proteins, as determined by measurement of the drug and exosomal protein contents (Tables IV and V). Sucrose density gradient ultracentrifugation confirmed the presence of drugs embedded in the exosomes (FIGS. 5-8). When tested for in vitro release using dialysis tubes against buffer containing the surfactant, Tween-80 [47] at 37° C., PAC and WFA were released time-dependently—20%, 43% and 70% PAC in 2, 6 and 19 h, and 12%, 40% and 58% WFA in 1, 4, and 24 h, respectively (FIGS. 10, 11A, and 11B).

[2] = In vitro release from loaded exosomes, dialysis tubes against buffer with Tween-80 at 37° C.; format: physicochemical
Method: as §1

[3] = 3 mg chemo. drug, 30 mg exosomal protein (Sample A)
[4] = 6 mg chemo. drug, 30 mg exosomal protein (Sample B)
[5] = 9 mg chemo. drug, 30 mg exosomal protein (Sample C)
[6] = 12 mg chemo. drug, 30 mg exosomal protein (Sample D)
[7] = 18 mg chemo. drug, 30 mg exosomal protein (Sample E)

Structure (SMILES) | % Drug load [1, 3] [%] | % Drug load [1, 4] [%] | % Drug load [1, 5] [%] | % Drug load [1, 6] [%] | % Drug load [1, 7] [%] | stability of agent extracted from residual material of the release study [2] | in vitro release from exosomes ([2]; 2 h) [%] | in vitro release from exosomes ([2]; 6 h) [%] | in vitro release from exosomes ([2]; 19 h) [%] | % Drug load ([1]; 5 mg agent, 50 mg exosomal protein (Sample A)) [%] | % Drug load ([1]; 10 mg agent, 50 mg exosomal protein (Sample B)) [%] | % Drug load ([1]; 20 mg agent, 50 mg exosomal protein (Sample C)) [%] | % Drug load ([1]; 25 mg agent, 50 mg exosomal protein (Sample D)) [%] | in vitro release from exosomes ([2]; 1 h) [%] | in vitro release from exosomes ([2]; 4 h) [%] | in vitro release from exosomes ([2]; 24 h) [%] | stability of agent extracted from residual material of the release study ([2]; HPLC or UV spectral analysis)
CC(=O)O[C@@]12CO[C@@H]1C[C@H](O)[C@@]1(C)C(=O)[C@H](O)C3=C(C)[C@@H](OC(=O)[C@H](O)[C@@H](NC(=O)OC(C)(C)C)c4ccccc4)C[C@@](O)([C@@H](OC(=O)c4ccccc4)[C@H]21)C3(C)C [Docetaxel, docetaxel] | 6.0 | 17.7 | 34.5 | 49.1 | 55.1 | stable during the workup | – | – | – | – | – | – | – | – | – | – | –
CC(=O)O[C@H]1C(=O)[C@@]2(C)[C@H]([C@H](OC(=O)c3ccccc3)[C@]3(O)C[C@H](OC(=O)[C@H](O)[C@@H](NC(=O)c4ccccc4)c4ccccc4)C(C)=C1C3(C)C)[C@]1(OC(C)=O)CO[C@@H]1C[C@@H]2O [Paclitaxel, paclitaxel] | 15.7 | 20.3 | 14.9 | 36.6 | 64.6 | stable during the workup | 20 | 43 | 70 | – | – | – | – | – | – | – | –
CC1=C(CO)C(=O)O[C@@H]([C@@H](C)[C@H]2CC[C@H]3[C@@H]4C[C@H]5O[C@]56[C@@H](O)C=CC(=O)[C@]6(C)[C@H]4CC[C@]23C)C1 [Withaferin A, withaferin A] | – | – | – | – | – | – | – | – | – | 3.8 | 8.6 | 31.4 | 44.8 | 12 | 40 | 58 | stable during the workup
